# Laboratory results taken from patent US8367666B2 (priority 2004, dated 2013).
# System: respiratory function after cigarette smoke exposure
# Assay: Cigarette smoke exposure, deterioration of guinea pig's breath function (COPD model)
# Format: in vivo, Hartley guinea pig
# Details: 30 mg/kg a day, oral, Student t-test
# Method: The main current smoke of a cigarette with a filter tip commercially available (Highlight, nicotine 1.4 mg content, and tar 17 mg content, Japan Tabaco Inc.) was exposed to the nose and the mouth of a Hartley guinea pig (obtained from Japan SLC Co., Ltd.) at the rate of 30 pieces of the cigarettes a day for five days a week during 30 days with a cigarette smoke exposure device for an animal (manufactured by […] Co., Ltd.). (Wright J L, Churg A. Cigarette smoke causes physiologic and morphologic changes of emphysema in the guinea pig Am. Rev. Respir. Dis. 1990 142:1422-8). […] After 16 to 24 hours had passed from the final cigarette smoke exposure, the trachea incision of the guinea pig was conducted under urethane ([…], i.p.) anesthesia, and a cannula was intubated and installed in a respiratory function measuring device system, a maneuver (manufactured by Baxco Co., Ltd.) for small animals. The respiratory function of the guinea pig was measured according to the protocol of the maneuver. In the medium administered control group and the medicine administered group, the amount of a functional residual air, the increase in the total lung capacity, and the decrease in the dynamic lung compliance by the cigarette smoke exposure were compared and the test of the significant difference was conducted. The data will be shown by the average±the standard deviation. […]
smiles,measurement,value
"COC(=O)C(NC(=O)c1cc2c(n(CC=O)c1=O)CCCCCC2)C(C)C (centres unmarked) [(1), methyl 3-methyl-2-{[2-oxo-1-(2-oxo-ethyl)-1,2,5,6,7,8,9,10-octahydro-cycloocta[b]pyridine-3-carbonyl]-amino}-butyrate]","increase in the amount of a functional residual air by the cigarette smoke exposure, difference to medium group",significant difference of P<0.05
same,"increase in the total lung capacity by the cigarette smoke exposure, difference to medium group",significant difference of P<0.05
